“Also recorded” adds a separate entry of the source. Marks after values point to notes of the source that are not given here.
Legend:
DBA1/J mice = test: Liver histology in collagen induced arthritis mice; format: in vivo; settings: individual mouse; diseased mice; po, MTX 2.5 mg/kg, Formula (II) 50 mg/kg
From the text: Dosing is started, PO (per oral) once daily for 14 days.

Beagle dogs [1] = system: Beagle dogs
From the text: The animals were randomly allocated to five test groups employing a pseudo-random body weight stratification procedure that yielded groups with approximately equal mean body weights. […] A special focus of the study was to study the influence of the combination treatment on liver toxicity.

Beagle dogs [2] = test: 13-week repeat dose toxicity in Beagle dogs, combination with methotrexate: clinical biochemistry (ALAT, ASAT); format: in vivo; settings: for ALAT, change as compared to the control group 1 / ASAT, change as compared to the control group 1: 25 mg Formula (II)/kg/day and/or 10/2.5 mg MTX/kg/week, p.o.
Protocol: For laboratory examinations blood samples were taken from the vena cephalica or vena saphena magna from animals fasted overnight. Serum samples were collected into tubes for biochemical tests. Clinical biochemistry parameters from venous blood were determined at the times listed below:
Prior to study start: all animals of a pool of 52 dogs […]
At the end of the recovery period: all 8 recovery animals included in this study
Clinical biochemistry parameters (e.g. bile acids, alanine aminotransferase=ALAT, alkaline phosphatise=aP, aspartate aminotransferase=ASAT, gamma-glutamyl-transferase=Gamma-GT, glutamate dehydrogenase=GLDH, creatine kinase=CK) were measured using KONELAB 30i instrument (Thermo Fisher Scientific, 63303 Dreieich, Germany) as U/L (unit/liter) serum.

[3] = Toxicokinetics of formula (II) and methotrexate after individual and concomitant administration to Beagle dogs; format: in vivo; settings: Beagle, dog, plasma, po, mean
[4] = female, 2.5 mg/kg, Group 3, methotrexate alone 2.5 mg/kg (reduced from 10), week 13, female Beagle dogs
[5] = female, 2.5 mg/kg, Group 4 (+10SC, in combination with 10 mg/kg formula (II)), methotrexate 2.5 mg/kg (reduced from 10), week 13, female Beagle dogs
[6] = female, 2.5 mg/kg, Group 5 (+25SC, in combination with 25 mg/kg formula (II)), methotrexate 2.5 mg/kg (reduced from 10), week 13, female Beagle dogs
[7] = female, 10 mg/kg, Group 3, methotrexate 10 mg/kg alone, day 1, female Beagle dogs
[8] = female, 10 mg/kg, Group 4 (+10SC, in combination with 10 mg/kg formula (II)), methotrexate 10 mg/kg, day 1, female Beagle dogs
[9] = female, 10 mg/kg, Group 5 (+25SC, in combination with 25 mg/kg formula (II)), methotrexate 10 mg/kg, day 1, female Beagle dogs
[10] = male, 2.5 mg/kg, Group 3, methotrexate alone 2.5 mg/kg (reduced from 10), week 13, male Beagle dogs
[11] = male, 2.5 mg/kg, Group 4 (+10SC, in combination with 10 mg/kg formula (II)), methotrexate 2.5 mg/kg (reduced from 10), week 13, male Beagle dogs
[12] = male, 2.5 mg/kg, Group 5 (+25SC, in combination with 25 mg/kg formula (II)), methotrexate 2.5 mg/kg (reduced from 10), week 13, male Beagle dogs
[13] = male, 10 mg/kg, Group 3, methotrexate 10 mg/kg alone, day 1, male Beagle dogs
[14] = male, 10 mg/kg, Group 4 (+10SC, in combination with 10 mg/kg formula (II)), methotrexate 10 mg/kg, day 1, male Beagle dogs
[15] = male, 10 mg/kg, Group 5 (+25SC, in combination with 25 mg/kg formula (II)), methotrexate 10 mg/kg, day 1, male Beagle dogs

SMILES: CN(Cc1cnc2nc(N)nc(N)c2n1)c1ccc(C(=O)N[C@@H](CCC(=O)O)C(=O)O)cc1 [MTX, methotrexate, reference compound]
- Liver Histology, Observations (DBA1/J mice): Minimal glycogen depletion, hepatocyte; also recorded: Mild glycogen depletion, hepatocyte; also recorded: Normal; also recorded: Minimal multifocal subacute inflammation
- Premature death (Beagle dogs [1]; Beagle dogs, 10 mg MTX/kg body weight/week, oral): found dead in the morning of test day 20
- Enteritis in the gastro-intestinal mucosa (Beagle dogs [1]; dog, in vivo, po): most pronounced
- Changes in the biochemical parameters (Beagle dogs [2]; Beagle dogs, 13 weeks oral, serum): pronounced and statistically significant (at p≦0.01) changes in the biochemical parameters of ALAT, ASAT, CK, GLDH as well as bile acids
- ALAT, change as compared to the control group 1 (Beagle dogs [2]; Test day 37, females): +190%
- ASAT, change as compared to the control group 1 (Beagle dogs [2]; Test day 37, females): +47** %
- ALAT, change as compared to the control group 1 (Beagle dogs [2]; Test day 37, males): none
- ASAT, change as compared to the control group 1 (Beagle dogs [2]; Test day 37, males): none
- ALAT, change as compared to the control group 1 (Beagle dogs [2]; Test day 93, females): +567%
- ASAT, change as compared to the control group 1 (Beagle dogs [2]; Test day 93, females): +34** %
- ALAT, change as compared to the control group 1 (Beagle dogs [2]; Test day 93, males): +386%
- ASAT, change as compared to the control group 1 (Beagle dogs [2]; Test day 93, males): +55** %
- AUC(0-inf) [3, 4]: 2200 ng·h/mL
- Cmax [3, 4]: 500 ng/mL
- half-life [3, 4]: 2.3 h
- AUC(0-inf) [3, 5]: 1900 ng·h/mL
- Cmax [3, 5]: 400 ng/mL
- half-life [3, 5]: 2.6 h
- AUC(0-inf) [3, 6]: 1400 ng·h/mL
- Cmax [3, 6]: 200 ng/mL
- half-life [3, 6]: 2.7 h
- AUC(0-inf) [3, 7]: 5300 ng·h/mL
- Cmax [3, 7]: 1100 ng/mL
- half-life [3, 7]: 2.4 h
- AUC(0-inf) [3, 8]: 7500 ng·h/mL
- Cmax [3, 8]: 1700 ng/mL
- AUC(0-inf) [3, 9]: 5000 ng·h/mL
- Cmax [3, 9]: 1200 ng/mL
- half-life [3, 9]: 2 h
- AUC(0-inf) [3, 10]: 3000 ng·h/mL
- Cmax [3, 10]: 700 ng/mL
- half-life [3, 10]: 2.6 h
- AUC(0-inf) [3, 11]: 2000 ng·h/mL
- Cmax [3, 11]: 400 ng/mL
- half-life [3, 11]: 2 h
- AUC(0-inf) [3, 12]: 2500 ng·h/mL
- Cmax [3, 12]: 600 ng/mL
- half-life [3, 12]: 2.1 h
- AUC(0-inf) [3, 13]: 6400 ng·h/mL
- Cmax [3, 13]: 1800 ng/mL
- half-life [3, 13]: 1.6 h
- AUC(0-inf) [3, 14]: 6600 ng·h/mL
- Cmax [3, 14]: 1700 ng/mL
- half-life [3, 14]: 1.6 h
- AUC(0-inf) [3, 15]: 5900 ng·h/mL
- Cmax [3, 15]: 1200 ng/mL
- half-life [3, 15]: 2.2 h

Source: patent publication US20120028985A1, “COMBINATIONAL THERAPY FOR TREATING AUTOIMMUNE DISEASE” (4SC AG, priority 2008, published 2012)
